Test: Appearance of formulations at preparation and on storage
Assay type: physicochemical
Settings: 10 mg/mL in aqueous vehicles
Procedure: Appearance and pH results for formulation 10 (technical batch) at preparation and following storage at 2-8° C., 25° C./60% relative humidity (RH) and 40°/75% RH are presented in Table 17. At T=0 (the initial analysis), the pH met the specification of 3.8-4.2 and the osmolality met the specification of 270-330 mOsm/kg (296 mOsm/kg). […] However, at 40° C./75% RH there is an obvious colour change in the product at T=6 months. There was an indication of colour change at the 2 and 3 month points on storage at 40° C./75% RH when compared to the other storage conditions, but at 6 months the colour change was obvious.
Appearance and pH results for formulation 10 (clinical batch) at preparation and following storage at 2-8° C., 25° C./60% relative humidity (RH) and 40°/75% RH are presented in Table 24. […] There was an indication of colour change at the 3 month point.

DMT fumarate [SPL026]
Appearance (after filtration (0.2 μm filters)): clear colourless solution | Appearance (before filtration): clear beige colour
